Results published in patent US20160038454A1, “INTRAVENOUS FORMULATIONS OF […] AS IMMUNOMODULATORS AND […] AGENTS” (priority 2013, published 2016).
≈ marks a conversion by molar mass, not a printed value. Entries after “also recorded” stand apart in the source; their conditions may differ.

How the values were obtained:
Ba/F3-ITD cells = settings: mice harboring Ba/F3-ITD cells; Carter et al. 2012; cited from earlier work
[1] = Rodent toxicology study, intravenous, seven days; assay type: in vivo, rodents; settings: in vivo, iv; intravenously for seven days in rodents; read-out: no effect dose (NOAEL)
Protocol: (§1) Triptolide prodrugs are generally believed to be safer than triptolide. […] Triptolide prodrugs as an emulsion formulation are believed to have a toxicokinetic profile characterized by a flat AUC with a minimized Cmax. [In conjunction, it was postulated that a sustained inhibition of RNA polymerase is needed for optimum efficacy which in turn requires a pharmcokinetic profile of constant exposure to drug]. […] The no effect dose (“NOAEL”) of PG796(MRx102) again exceeded 1.5 mg/kg/day intravenously for seven days in rodents confirming the initial results. It is interesting to ask why a prodrug of triptolide would be safer than the natural product itself; while not wishing to be bound by theory, perhaps the answer lies in the pharmacokinetic profile of triptolide administered either directly or released from its carrier, PG796(MRx102). […] It also remained above the therapeutic levels (shown as a thick line without symbols). The difference in the Cmax/AUC profile of PG796(MRx102) vs. triptolide is believed to be due to the physiochemical properties of the lipid prodrug/emulsion formulation combination. In general, triptolide prodrugs having a cLogP greater than 0.5 are more lipid-soluble than water soluble and are expected to take longer to convert to the drug form; such characteristics may yield a flatter conversion profile and less of a drug-release Cmax spike.

rodents = assay: Rodent toxicology study, intravenous, seven days; assay type: in vivo
Protocol: as §1

[2] = PG796(MRx102) solubility in emulsion formulations; assay type: physicochemical; settings: emulsion formulation, aqueous with cosolvent or surfactant or cyclodextrin
Protocol: Various ratios of the nonionic surfactants polysorbate 80 (a.k.a. Tween 80) and Span 80 were explored, and a formulation was prepared and tested as follows. […] The results of this preliminary experiment were encouraging in that a reasonably high solubility was obtained in a formulation containing almost 70% water.
Emulsion formulations were prepared using a probe sonicator to disperse the oil phase in the aqueous phase to form a creamy opaque suspension.
Typical emulsion formulations consist of 10-30% triglyceride, most commonly SBO, dispersed with 0.5-2% phospholipids in an aqueous phase, which contains glycerin as a tonicity agent. […] Additionally, PEG-400 and ethanol were incorporated into some of the formulations to decrease the polarity of the aqueous phase to enhance solubility. Sodium cholate was included in some formulations as a co-surfactant. Solubility of at least 1 mg/mL was obtained in all of the formulations. In each case some loss of potency was observed after eight days of storage, but the majority of the original potency was maintained.
Pharmaceutical emulsions are typically prepared at neutral to slightly alkaline pH since they are stabilized by electrostatic repulsion between droplets imparted by pH-sensitive anionic surfactants, such as phosphatidyl ethanolamine, free fatty acid salts, and cholate. However, it was possible that this pH range could be suboptimal for the chemical stability of PG796(MRx102). To test this, emulsions were prepared at different pH values ranging from 4 to 8. Buffers were included to control the pH, and the non-pH sensitive surfactant, sodium dodecyl sulfate was used in place of sodium cholate to assure a negative charge even in the low pH emulsions. All of the formulations were reasonably stable for up to 2 weeks at room temperature. […]

NF-κB, Mcl-1 and XIAP = settings: cited from earlier work
MV4-11 cells = assay: Synergy with AML drugs in vitro; assay type: cell-based; settings: MV4-11 cells in vitro
Excerpt: Another consequence of XPB binding is the inhibition of nucleotide excision repair.

[3] = system: human T cell lymphoma (Jurkat) cells; assay: in vitro; assay type: cell-based
Protocol: Test compounds may be dissolved in DMSO at a concentration of 20 mM. Further dilutions may be done in RPMI1640 medium (GIBCO, Rockville, Md.) supplemented with 10% Fetal Calf Serum (HyClone Laboratories, Logan, Utah).
Cytotoxicity of the compounds is determined in a standard MTT assay using Cell Proliferation Kit I (#1 465 007, Roche Diagnostics, Mannheim, Germany). Briefly, human T cell lymphoma (Jurkat) cells (4×10^5 per well) are cultured for 24 h, in 96-well tissue culture plates, in the presence of serial three-fold dilutions of test compounds or medium containing the same concentration of DMSO as in the test samples at each dilution point. The cultures are then supplemented with 10 μl/well MTT reagent for 4 h and then with 0.1 ml/well solubilizing reagent for an additional 16 h. Optical density at 570 nm (OD570) is measured on a ThermoScan microplate reader (Molecular Devices, Menlo Park, Calif.).

[4] = system: bulk, CD34(+) progenitor and CD34(+)CD38(−) stem/progenitor cells from AML patients; settings: low nanomolar concentrations; also in coculture with mesenchymal stromal cells; Carter et al. 2012; cited from earlier work
[5] = TK: plasma triptolide levels, Calvert study (emulsion); assay type: in vivo, rodents; settings: FIG. 1
Protocol: as §1
TK comparison of triptolide levels in Calvert and SRI studies—Males and Females

[6] = emulsion target pH 4.0 (acetate)
[7] = emulsion target pH 5.0 (acetate)
[8] = emulsion target pH 6.0 (histidine)
[9] = emulsion target pH 7.0 (phosphate)

Structure (SMILES): CC(C)[C@]12O[C@H]1[C@@H]1O[C@]13[C@]1(O[C@H]1C[C@H]1c4c(C(=O)c5ccccc5)oc(OC(=O)c5ccccc5)c4CC[C@@]13C)[C@@H]2O [PG796, 18-deoxo-19-dehydro-18-benzoyloxy-19-benzoyl triptolide]
- leukemia burden (Ba/F3-ITD cells): greatly decreased
- survival time (Ba/F3-ITD cells): increased
- NOAEL at 7 days [1]: > 1.5 mg/kg/day
- gross or histopathologic toxic effects (rodents; intravenous doses up to 1.5 mg/kg/day for seven days, initial rodent toxicology study): no gross or histopathologic toxic effects
- toxicity relative to triptolide (times less toxic) (rodents; intravenous, emulsion formulation, rodents, gross and histopathologic criteria): at least 20 times
- solubility at 0 hr [2, 6]: 870 µg/mL (≈ 1530 µM)
- solubility at 1 wk [2, 6]: 1000 µg/mL (≈ 1760 µM)
- solubility at 2 wk [2, 6]: 848 µg/mL (≈ 1490 µM)
- solubility at 24 hr [2, 6]: 917 µg/mL (≈ 1610 µM)
- solubility at 0 hr [2, 7]: 1010 µg/mL (≈ 1770 µM)
- solubility at 1 wk [2, 7]: 972 µg/mL (≈ 1710 µM)
- solubility at 2 wk [2, 7]: 910 µg/mL (≈ 1600 µM)
- solubility at 24 hr [2, 7]: 922 µg/mL (≈ 1620 µM)
- solubility at 0 hr [2, 8]: 1090 µg/mL (≈ 1920 µM)
- solubility at 1 wk [2, 8]: 948 µg/mL (≈ 1670 µM)
- solubility at 2 wk [2, 8]: 850 µg/mL (≈ 1490 µM)
- solubility at 24 hr [2, 8]: 890 µg/mL (≈ 1570 µM)
- solubility at 0 hr [2, 9]: 996 µg/mL (≈ 1750 µM)
- solubility at 1 wk [2, 9]: 760 µg/mL (≈ 1340 µM)
- solubility at 2 wk [2, 9]: 822 µg/mL (≈ 1450 µM)
- solubility at 24 hr [2, 9]: 849 µg/mL (≈ 1490 µM)
- solubility at 0 hr ([2]; emulsion target pH 8.0 (Tris)): 929 µg/mL (≈ 1630 µM)
- solubility at 1 wk ([2]; emulsion target pH 8.0 (Tris)): 1040 µg/mL (≈ 1830 µM)
- solubility at 2 wk ([2]; emulsion target pH 8.0 (Tris)): 930 µg/mL (≈ 1640 µM)
- solubility at 24 hr ([2]; emulsion target pH 8.0 (Tris)): 929 µg/mL (≈ 1630 µM)
- solubility ([2]; preliminary emulsion: 29.4% GTO, 1.65% Span 80, 0.31% Tween 80, 68.6% water): 681 µg/mL (≈ 1200 µM)
- effect on mRNA levels, NF-κB, Mcl-1 and XIAP (NF-κB, Mcl-1 and XIAP): reduced mRNA levels, reduced NF-κB and reduced Mcl-1 and XIAP
- synergy with cytarabine (MV4-11 cells): synergy was demonstrated
- synergy with idarubicin (MV4-11 cells): synergy was demonstrated
- cytotoxic activity in MTT assay (in words) ([3]; Jurkat cells, comparison with triptolide or PG490-88): cytotoxic; also recorded: higher level of activity
- activity in MTT assay after incubation in human serum vs mouse serum ([3]; incubated in human serum compared with mouse serum): high, and essentially equivalent, activity
- apoptosis in cells from AML patients [4]: induced apoptosis
- triptolide Cmax after prodrug relative to triptolide administered directly ([5]; intravenous, emulsion): approximately one-tenth
- triptolide blood levels over time ([5]; prodrug administered): remained relatively constant
